Measurements reported in US9434763B2, “Derivatives of pyridinone as inhibitors for tissue transglutaminase” (ZEDIRA GMBH, priority 2012, dated 2016).

Columns and labels:
[1] = test system: Huh 7 (human hepatome-cell line); assay: Cytotoxicity: metabolic activity, EZ4U-Assay, Huh 7; assay type: cell-based; settings: Huh7 cells; 48 hours after addition; inhibitors up to 1 mM (so in the source); cycloheximide 2.5 μg/ml, camptothecin 0.2 μg/ml
Experimental: (§1) Huh 7 (human hepatome-cell line) and CaCo2 (human colon carcinoma-cell line) were seeded to 96 well plates in Dulbecco's Modified Eagle's Medium (DMEM)/10% fetal calf serum (FCS) and cultivated. The method is known to the skilled person.
(§2) […] The determination of the proliferation was carried out using the Cell Proliferation ELISA, BrdU (Roche 11 647 229 001): 24 hours after incubation of the cells with the inhibitor BrdU was added. The colorimetric development of the test was made after further 48 hours according to manufacturer's information. The extinction was measured at 450 nm. For determination of the metabolic activity using the EZ4U-Assay (Biomedica B1-5000) the tetrazolium substrate was added to the cells 48 hours after addition of the inhibitor. The capacity for reaction of the cells was measured every hour over a period of 4 hours at 450 nm against a reference filter of 630 nm. DMEM without inhibitor was added as reference in both experiments, as positive control cycloheximide (2.5 μg/ml) and camptothecin (0.2 μg/ml).

[2] = test system: Huh 7 (human hepatome-cell line); assay: Cytotoxicity: proliferation, Cell Proliferation ELISA, BrdU, Huh 7; assay type: cell-based; settings: Huh7 cells; inhibitors up to highest measured concentration of 1 mM (so in the source); cycloheximide 2.5 μg/ml, camptothecin 0.2 μg/ml
Experimental: as §1, §2

[3] = test system: CaCo2 (human colon carcinoma-cell line); assay: Cytotoxicity: metabolic activity, EZ4U-Assay, CaCo2; assay type: cell-based; settings: CaCo2 cells; 48 hours after addition; inhibitors up to 1 mM (so in the source); cycloheximide 2.5 μg/ml, camptothecin 0.2 μg/ml
Experimental: as §1
After one hour the inhibitors A63 (ZED1227), A29 (ZED1098) and A61 (ZED1219) were added in the concentrations 0.1 μM to 1 μM. The determination of the proliferation was carried out using the Cell Proliferation ELISA, BrdU (Roche 11 647 229 001): 24 hours after incubation of the cells with the inhibitor BrdU was added. The colorimetric development of the test was made after further 48 hours according to manufacturer's information. The extinction was measured at 450 nm. For determination of the metabolic activity using the EZ4U-Assay (Biomedica B1-5000) the tetrazolium substrate was added to the cells 48 hours after addition of the inhibitor. The capacity for reaction of the cells was measured every hour over a period of 4 hours at 450 nm against a reference filter of 630 nm. DMEM without inhibitor was added as reference in both experiments, as positive control cycloheximide (2.5 μg/ml) and camptothecin (0.2 μg/ml).

[4] = test system: CaCo2 (human colon carcinoma-cell line); assay: Cytotoxicity: proliferation, Cell Proliferation ELISA, BrdU, CaCo2; assay type: cell-based; settings: CaCo2 cells; inhibitors up to highest measured concentration of 1 mM (so in the source); cycloheximide 2.5 μg/ml, camptothecin 0.2 μg/ml
Experimental: as §1, §2

[5] = target: T1, His tagged recombinant human tissue transglutaminase (His6-rh-TG2) (Homo sapiens, UniProt P21980); assay: Inactivation of human tissue transglutaminase, fluorescence assay with Abz-APE(CAD-DNP)QEA-OH; assay type: biochemical; settings: substrate Abz-APE(CAD-DNP)QEA-OH, 37° C., pH=7.5
T1 construct: purchased Zedira T002
T1 sequence (P21980 1-687): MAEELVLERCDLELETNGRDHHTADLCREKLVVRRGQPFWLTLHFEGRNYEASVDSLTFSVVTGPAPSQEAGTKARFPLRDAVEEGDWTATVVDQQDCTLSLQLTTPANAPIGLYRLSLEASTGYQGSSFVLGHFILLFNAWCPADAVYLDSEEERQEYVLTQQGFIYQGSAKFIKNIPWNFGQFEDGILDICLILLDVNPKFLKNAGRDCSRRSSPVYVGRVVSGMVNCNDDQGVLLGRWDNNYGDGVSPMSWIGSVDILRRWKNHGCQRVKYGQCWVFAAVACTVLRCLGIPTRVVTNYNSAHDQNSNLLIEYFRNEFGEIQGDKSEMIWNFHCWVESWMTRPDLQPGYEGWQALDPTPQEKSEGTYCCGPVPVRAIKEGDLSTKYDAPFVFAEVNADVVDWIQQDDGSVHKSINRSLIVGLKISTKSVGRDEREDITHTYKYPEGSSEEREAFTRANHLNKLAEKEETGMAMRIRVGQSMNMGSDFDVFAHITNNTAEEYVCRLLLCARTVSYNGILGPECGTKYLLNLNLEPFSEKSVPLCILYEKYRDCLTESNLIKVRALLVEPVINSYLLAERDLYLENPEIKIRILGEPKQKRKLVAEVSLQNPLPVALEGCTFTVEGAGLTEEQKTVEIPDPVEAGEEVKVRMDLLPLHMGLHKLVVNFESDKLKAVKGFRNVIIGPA
Experimental: General Method for Inactivation of Human Tissue Transglutaminase
250 μg lyophilized His tagged recombinant human tissue transglutaminase (His6-rh-TG2, Zedira product T002) are reconstituted by adding 150 μl water (resulting buffer 50 mM NaH2PO4, 150 mM NaCl, pH=8.0).
A 10 mM inhibitor stock solution in DMSO is prepared and is diluted with buffer (50 mM Tris-HCl, 10 mM CaCl2, 5 mM DTT, pH=7.5) each to the twentyfold of the concentration desired in the preparation (but at least 1/50 dilution resulting in a 2% DMSO concentration).
900 μl of an assay-solution consisting of 55.56 mM Tris, 11.11 mM CaCl2, 0.11% PEG8000, 5.56 mM DTT, 5.56 mM glycine methyl ester and 50 μM Abz-APE(CAD-DNP)QEA-OH, (Zedira product A102; patent No.: EP 1781807B1), pH=7.5 are added to a cuvette and heated in a measuring cell of a spectrophotometer to 37° C. 50 μl of the particular inhibitor solution are added to this solution (resulting in a concentration of less than 0.2% DMSO in the mixture).
7 μl of the transglutaminase solution reconstituted above are diluted with 51 μl buffer (50 mM Tris, 100 mM NaCl, 5 mM DTT, pH=7.5). 50 μl of this enzyme solution (10 μg His6-rhTG2) are added to the assay-solution containing the particular inhibitor concentration. It is incubated 5 min at 37° C. before measuring starts (λexc=313 nm and λem=418 nm, t=15 to 30 min).
The evaluation of the resulting enzyme activity is done using the slope of the straight line obtained by the increase in fluorescence.
To determine the non-inhibited enzyme activity, DMSO instead of inhibitor stock solution is used. IC50 values are determined by plotting the resulting enzyme activity against the logarithm of the inhibitor concentration. IC50 is defined as the concentration of inhibitor resulting in 50% of enzyme activity.

Row | SMILES | IC50 [5] [nM] | further results
1 | C[C@@H]1C[C@@H]([C@H](O)CC2CC(=O)NC(=O)C2)C(=O)[C@@H](C)C1 [cycloheximide, reference compound] |  | effect on metabolic activity (EZ4U) [1]: significant reduction; effect on proliferation (BrdU) [2]: significant reduction; effect on metabolic activity (EZ4U) [3]: significant reduction; effect on proliferation (BrdU) [4]: significant reduction
2 | CCOC(=O)/C=C/CC[C@H](NC(=O)c1ccc2c(c1)OCCN2C)C(=O)Nc1cccn(CC(=O)NCCC(C)C)c1=O [A21, (S,E)-Ethyl 7-(1-(2-(isopentylamino)-2-oxoethyl)-2-oxo-1,2-dihydropyridin-3-ylamino)-6-(4-methyl-3,4-dihydro-2H-benzo[b][1,4]oxazine-7-carboxamido)-7-oxohept-2-enoate] | 111 | 
3 | CCOC(=O)/C=C/CC[C@H](NC(=O)OCc1ccccc1)C(=O)Nc1ccc(C)n(CC(=O)NC(CC(=O)O)CC(C)C)c1=O (stereo partly drawn) [A5, 3-(2-(3-((S,E)-2-(Benzyloxycarbonylamino)-7-ethoxy-7-oxohept-5-enamido)-6-methyl-2-oxopyridin-1(2H)-yl)acetamido)-5-methylhexanoic acid] | 130 | 
4 | CCOC(=O)/C=C/CC[C@H](NC(=O)c1cccnc1)C(=O)Nc1ccc(C)n(CC(=O)NCCc2ccccc2)c1=O [A8, (S,E)-Ethyl 7-(6-methyl-2-oxo-1-(2-oxo-2-(phenethylamino)ethyl)-1,2-dihydropyridin-3-ylamino)-6-(nicotinamido)-7-oxohept-2-enoate] | 251 | 
5 | CCOC(=O)/C=C/CC[C@H](NC(C)=O)C(=O)Nc1cccn(CC(=O)N[C@@H](CC(C)(C)C)C(=O)OC)c1=O [A40, (S,E)-Ethyl 6-acetamido-7-(1-(2-((S)-1-methoxy-4,4-dimethyl-1-oxopentan-2-ylamino)-2-oxoethyl)-2-oxo-1,2-dihydropyridin-3-ylamino)-7-oxohept-2-enoate] | 131 | 
6 | CCOC(=O)/C=C/CC[C@H](NC(C)=O)C(=O)Nc1cccn(CC(=O)NCC2CCN(CC)CC2)c1=O [A48, (S,E)-Ethyl 6-acetamido-7-(1-(2-((1-ethylpiperidin-4-yl)methylamino)-2-oxoethyl)-2-oxo-1,2-dihydropyridin-3-ylamino)-7-oxohept-2-enoate] | 1700 | 
7 | CCOC(=O)/C=C/CC[C@H](NC(=O)CCC(=O)O)C(=O)Nc1cccn(CC(=O)N[C@@H](CC(C)(C)C)C(=O)OC)c1=O [A41, 4-((S,E)-7-Ethoxy-1-(1-(2-((S)-1-methoxy-4,4-dimethyl-1-oxopentan-2-ylamino)-2-oxoethyl)-2-oxo-1,2-dihydropyridin-3-ylamino)-1,7-dioxohept-5-en-2-ylamino)-4-oxobutanoic acid] | 166 | 
8 | COC(=O)/C=C/CC[C@H](NC(C)=O)C(=O)Nc1cccn(CC(=O)N2CCCC(C(F)(F)F)C2)c1=O (stereo partly drawn) [A66, (6S,E)-Methyl 6-acetamido-7-oxo-7-(2-oxo-1-(2-oxo-2-(3-(trifluoromethyl)piperidin-1-yl)ethyl)-1,2-dihydropyridin-3-ylamino)hept-2-enoate] | 310 | 
9 | CC[C@@]1(O)C(=O)OCc2c1cc1n(c2=O)Cc2cc3ccccc3nc2-1 [camptothecin, reference compound] |  | effect on metabolic activity (EZ4U) [1]: significant reduction; effect on proliferation (BrdU) [2]: significant reduction; effect on metabolic activity (EZ4U) [3]: significant reduction; effect on proliferation (BrdU) [4]: significant reduction
10 | CCOC(=O)/C=C/CC[C@H](NC(=O)CCC(=O)O)C(=O)Nc1cccn(CC(=O)N2CCC(C(F)(F)F)CC2)c1=O [A45, (S,E)-4-(7-Ethoxy-1,7-dioxo-1-(2-oxo-1-(2-oxo-2-(4-(trifluoromethyl)piperidin-1-yl)ethyl)-1,2-dihydropyridin-3-ylamino)hept-5-en-2-ylamino)-4-oxobutanoic acid] | 1230 | 
11 | CCOC(=O)/C=C/CC[C@H](NC(C)=O)C(=O)Nc1cccn(CC(=O)NCCN(CC)CC)c1=O [A25, (S,E)-Ethyl 6-acetamido-7-(1-(2-(2-(diethylamino)ethylamino)-2-oxoethyl)-2-oxo-1,2-dihydropyridin-3-ylamino)-7-oxohept-2-enoate] | 4800 | 
12 | CCOC(=O)/C=C/CC[C@H](NC(C)=O)C(=O)Nc1cccn(CC(=O)NCC(C)C)c1=O [A54, (S,E)-Ethyl 6-acetamido-7-(1-(2-(isobutylamino)-2-oxoethyl)-2-oxo-1,2-dihydropyridin-3-ylamino)-7-oxohept-2-enoate] | 191 | 
13 | CCC(CC)CNC(=O)Cn1cccc(NC(=O)[C@H](CC/C=C/C(=O)OC)NC(=O)CN)c1=O [A69, (S,E)-Methyl 6-(2-aminoacetamido)-7-(1-(2-(2-ethybutylamino)-2-oxoethyl)-2-oxo-1,2-dihydropyridin-3-ylamino)-7-oxohept-2-enoate 2,2,2-trifluoroacetate] | 71 | 
14 | CCOC(=O)/C=C/CC[C@H](NC(=O)c1ccc(N2CCN(C)CC2)cc1)C(=O)Nc1cccn(CC(=O)NCCC(C)C)c1=O [A20, (S,E)-Ethyl 7-(1-(2-(isopentylamino)-2-oxoethyl)-2-oxo-1,2-dihydropyridin-3-ylamino)-6-(4-(4-methylpiperazin-1-yl)benzamido)-7-oxohept-2-enoate] | 202 | 
15 | CCOC(=O)/C=C/CC[C@H](NC(=O)CCC(=O)O)C(=O)Nc1cccn(CC(=O)N[C@H](C(=O)OC)[C@H](C)CC)c1=O [A36, 4-((S,E)-7-Ethoxy-1-(1-(2-((2S,3R)-1-methoxy-3-methyl-1-oxopentan-2-ylamino)-2-oxoethyl)-2-oxo-1,2-dihydropyridin-3-ylamino)-1,7-dioxohept-5-en-2-ylamino)-4-oxobutanoic acid] | 88 | 
